Measurements reported in BindingDB's records for doi:10.1016/S0960-894X(01)80277-8 (1994).

Assay: Binding to delta opioid receptor by using [3H]DPDPE as radioligand in guinea pig brain minus cerebellum

SMILES | IC50 [µM]
CN1CC[C@]23c4c5ccc(-c6ccoc6)c4O[C@H]2[C@@H](O)C=C[C@H]3[C@H]1C5 [10-(3-furyl)-4-methyl-(1S,5R,13R,14S,17R)-12-oxa-4-azapentacyclo[9.6.1.01,13.05,17.07,18]octadeca-7(18),8,10,15-tetraen-14-ol] | 7.4
CC(=O)c1ccc2c3c1O[C@H]1[C@@H](O)C=C[C@H]4[C@@H](C2)N(C)CC[C@@]341 [1-[14-hydroxy-4-methyl-(1S,5R,13R,14S,17R)-12-oxa-4-azapentacyclo[9.6.1.01,13.05,17.07,18]octadeca-7(18),8,10,15-tetraen-10-yl]-1-ethanone] | 7.9
